Measurements: patent US12503461B2, “Pesticidally active heterocyclic derivatives with sulfur and sulfoximine containing substituents” (SYNGENTA CROP PROTECTION AG, priority 2019, dated 2025)

Tests used:
Type in all cases: in vivo
[1] = system: Plutella xylostella (Diamond Back Moth); assay: Example B4: Plutella xylostella (diamond back moth), treated artificial diet, eggs; settings: 192 h, application rate of 200 ppm, 8 days after infestation, in comparison to untreated samples, read-out: effect in at least one of the two categories (mortality or growth inhibition)
Description: Example B4: Plutella xylostella (Diamond Back Moth
24-well microtiter plates with artificial diet were treated with aqueous test solutions prepared from 10′000 ppm DMSO stock solutions by pipetting. After drying, Plutella eggs were pipetted through a plastic stencil onto a gel blotting paper and the plate was closed with it. The samples were assessed for mortality and growth inhibition in comparison to untreated samples 8 days after infestation.

[2] = system: Bemisia tabaci (Cotton White Fly); assay: Example B6: Bemisia tabaci (cotton white fly), feeding/contact activity, sprayed cotton leaf discs; settings: foliar, 144 h, application rate of 200 ppm, adult white flies, 6 days after incubation
Description: Example B6: Bemisia tabaci (Cotton White Fly). Feeding/Contact Activity
Cotton leaf discs were placed on agar in 24-well microtiter plates and sprayed with aqueous test solutions prepared from 10′000 ppm DMSO stock solutions. After drying the leaf discs were infested with adult white flies. The samples were checked for mortality 6 days after incubation.

[3] = system: Euschistus heros (Neotropical Brown Stink Bug); assay: Example B2: Euschistus heros (neotropical brown stink bug), sprayed soybean leaves, N2 nymphs; settings: 120 h, application rate of 200 ppm, 5 days after infestation, in comparison to untreated samples, read-out: effect in at least one of the two categories (mortality or growth inhibition)
Description: Example B2: Euschistus heros (Neotropical Brown Stink Bug
Soybean leaves on agar in 24-well microtiter plates were sprayed with aqueous test solutions prepared from 10′000 ppm DMSO stock solutions. After drying the leaves were infested with N2 nymphs. The samples were assessed for mortality and growth inhibition in comparison to untreated samples 5 days after infestation.

[4] = system: Spodoptera littoralis (Egyptian Cotton Leaf Worm); assay: Example B7: Spodoptera littoralis (Egyptian cotton leaf worm), sprayed cotton leaf discs, L1 larvae; settings: foliar, 72 h, application rate of 200 ppm, 3 days after infestation, in comparison to untreated samples
In short: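 Cotton leaf discs on agar were sprayed with aqueous test solutions made from 10′000 ppm DMSO stocks, dried, and infested with five L1 larvae. Mortality, anti-feeding and growth inhibition were scored against untreated samples 3 days after infestation; control means any category exceeds the untreated sample.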

[5] = system: Frankliniella occidentalis (Western Flower Thrips); assay: Example B3: Frankliniella occidentalis (western flower thrips), sprayed sunflower leaf discs; settings: foliar, 168 h, application rate of 200 ppm, population of mixed ages, 7 days after infestation
Description: Example B3: Frankliniella occidentalis (Western Flower Thrips
Sunflower leaf discs were placed on agar in 24-well microtiter plates and sprayed with aqueous test solutions prepared from […] stock solutions. After drying the leaf discs were infested with a Frankliniella population of mixed ages. The samples were assessed for mortality 7 days after infestation.

[6] = system: Diabrotica balteata (Corn Root Worm); assay: Example B1: Diabrotica balteata (corn root worm), sprayed maize sprouts on agar, L2 larvae; settings: 96 h, application rate of 200 ppm, 4 days after infestation, in comparison to untreated samples, read-out: effect in at least one of the two categories (mortality or growth inhibition)
Description: Example B1: Diabrotica balteata (Corn Root Worm
Maize sprouts placed onto an agar layer in 24-well microtiter plates were treated with aqueous test solutions prepared from 10′000 ppm DMSO stock solutions by spraying. After drying, the plates were infested with L2 larvae (6 to 10 per well). The samples were assessed for mortality and growth inhibition in comparison to untreated samples 4 days after infestation.

[7] = system: Myzus persicae (Green Peach Aphid); assay: Example B5: Myzus persicae (green peach aphid), feeding/contact activity, sprayed sunflower leaf discs; settings: foliar, 144 h, application rate of 200 ppm, aphid population of mixed ages, 6 days after infestation
Description: Example B5: Myzus persicae (Green Peach Aphid). Feeding/Contact Activity
Sunflower leaf discs were placed onto agar in a 24-well microtiter plate and sprayed with aqueous test solutions prepared from 10′000 ppm DMSO stock solutions. After drying, the leaf discs were infested with an aphid population of mixed ages. The samples were assessed for mortality 6 days after infestation.

[8] = system: Myzus persicae (Green Peach Aphid); assay: Example B8: Myzus persicae (green peach aphid), systemic activity, pea seedling roots in test solution; settings: 144 h, test rate of 24 ppm, aphid population of mixed ages, 6 days after placing seedlings into test solutions
Description: Example B8: Myzus persicae (Green Peach Aphid). Systemic Activity
Roots of pea seedlings infested with an aphid population of mixed ages were placed directly into aqueous test solutions prepared from 10′000 DMSO stock solutions. The samples were assessed for mortality 6 days after placing seedlings into test solutions.

CCS(=O)(=O)c1cc(N=S(C)(C)=O)cnc1-c1nc2cc(S(=N)(=O)C(F)(F)F)ccc2o1 (stereo not shown) [P1, [2-[5-[[dimethyl(oxo)-λ^6-sulfanylidene]amino]-3-ethylsulfonyl-2-pyridyl]-1,3-benzoxazol-5-yl]-imino-oxo-(trifluoromethyl)-λ^6-sulfane]
≥ 80%: percent effect (mortality or growth inhibition) at 200 ppm [1] | mortality at 200 ppm [2] | effect (mortality or growth inhibition) at 200 ppm [3] | percent control (mortality, anti-feeding effect or growth inhibition) at 200 ppm [4] | mortality at 200 ppm [5] | percent effect (mortality or growth inhibition) at 200 ppm [6] | mortality at 200 ppm [7]

CCS(=O)(=O)c1cc(C2(C#N)CC2)cnc1-c1nc2cc(S(=N)(=O)C(F)(F)F)ccc2o1 (stereo not shown) [P7, 1-[5-ethylsulfonyl-6-[5-(trifluoromethylsulfonimidoyl)-1,3-benzoxazol-2-yl]-3-pyridyl]cyclopropanecarbonitrile]
≥ 80%: percent effect (mortality or growth inhibition) at 200 ppm [1] | mortality at 200 ppm [2] | effect (mortality or growth inhibition) at 200 ppm [3] | percent control (mortality, anti-feeding effect or growth inhibition) at 200 ppm [4] | percent effect (mortality or growth inhibition) at 200 ppm [6]

CCS(=O)(=O)c1cc(C2CC2)cnc1-c1nc2cc(S(=N)(=O)C(F)(F)F)ccc2o1 (stereo not shown) [P12, [2-(5-cyclopropyl-3-ethylsulfonyl-2-pyridyl)-1,3-benzoxazol-5-yl]-imino-oxo-(trifluoromethyl)-λ^6-sulfane]
≥ 80%: percent effect (mortality or growth inhibition) at 200 ppm [1] | effect (mortality or growth inhibition) at 200 ppm [3] | percent control (mortality, anti-feeding effect or growth inhibition) at 200 ppm [4] | mortality at 200 ppm [5] | percent effect (mortality or growth inhibition) at 200 ppm [6] | mortality at 200 ppm [7]

CCS(=O)(=O)c1cccnc1-c1nc2cc(S(=O)(=NC(C)=O)C(F)(F)F)ccc2o1 (stereo not shown) [P17, N-[[2-(3-ethylsulfonyl-2-pyridyl)-1,3-benzoxazol-5-yl]-oxo-(trifluoromethyl)-λ^6-sulfanylidene]acetamide]
≥ 80%: percent effect (mortality or growth inhibition) at 200 ppm [1] | mortality at 200 ppm [2] | effect (mortality or growth inhibition) at 200 ppm [3] | percent control (mortality, anti-feeding effect or growth inhibition) at 200 ppm [4] | percent effect (mortality or growth inhibition) at 200 ppm [6] | mortality at 200 ppm [7]

CCN=S(=O)(c1cnc2c(c1)nc(-c1ncc(C3(C#N)CC3)cc1S(=O)(=O)CC)n2C)C(F)(F)F (stereo not drawn) [P20, 1-[5-ethylsulfonyl-6-[6-[N-ethyl-S-(trifluoromethyl)sulfonimidoyl]-3-methyl-imidazo[4,5-b]pyridin-2-yl]-3-pyridyl]cyclopropanecarbonitrile]
≥ 80%: percent effect (mortality or growth inhibition) at 200 ppm [1] | effect (mortality or growth inhibition) at 200 ppm [3] | percent control (mortality, anti-feeding effect or growth inhibition) at 200 ppm [4] | mortality at 200 ppm [5] | percent effect (mortality or growth inhibition) at 200 ppm [6] | mortality at 200 ppm [7] | mortality at 24 ppm [8]

CCS(=O)(=O)c1cc(C2(C#N)CC2)cnc1-c1nc2cc(S(=N)(=O)C(F)(F)F)cnc2n1C (stereo not shown) [P21, 1-[5-ethylsulfonyl-6-[3-methyl-6-(trifluoromethylsulfonimidoyl)imidazo[4,5-b]pyridin-2-yl]-3-pyridyl]cyclopropanecarbonitrile]
≥ 80%: percent effect (mortality or growth inhibition) at 200 ppm [1] | effect (mortality or growth inhibition) at 200 ppm [3] | percent control (mortality, anti-feeding effect or growth inhibition) at 200 ppm [4] | mortality at 200 ppm [5] | percent effect (mortality or growth inhibition) at 200 ppm [6] | mortality at 200 ppm [7] | mortality at 24 ppm [8]

CCS(=O)(=O)c1cc(OCC(C)(F)F)cnc1-c1nc2cc(S(=N)(=O)C(F)(F)F)ccc2o1 (stereo not shown) [P26, [2-[5-(2,2-difluoropropoxy)-3-ethylsulfonyl-2-pyridyl]-1,3-benzoxazol-5-yl]-imino-oxo-(trifluoromethyl)-λ^6-sulfane]
≥ 80%: percent effect (mortality or growth inhibition) at 200 ppm [1] | effect (mortality or growth inhibition) at 200 ppm [3] | percent control (mortality, anti-feeding effect or growth inhibition) at 200 ppm [4] | mortality at 200 ppm [5] | percent effect (mortality or growth inhibition) at 200 ppm [6] | mortality at 200 ppm [7]

CCN=S(=O)(c1ccc2oc(-c3ncc(OCC(C)(F)F)cc3S(=O)(=O)CC)nc2c1)C(F)(F)F (stereo not shown) [P27, [2-[5-(2,2-difluoropropoxy)-3-ethylsulfonyl-2-pyridyl]-1,3-benzoxazol-5-yl]-ethylimino-oxo-(trifluoromethyl)-λ^6-sulfane]
≥ 80%: percent effect (mortality or growth inhibition) at 200 ppm [1] | effect (mortality or growth inhibition) at 200 ppm [3] | percent control (mortality, anti-feeding effect or growth inhibition) at 200 ppm [4] | mortality at 200 ppm [5] | percent effect (mortality or growth inhibition) at 200 ppm [6] | mortality at 200 ppm [7]

CCN=S(=O)(c1ccc2c(c1)nc(-c1ncc(C3(C#N)CC3)cc1S(=O)(=O)CC)n2C)C(F)(F)F (stereo not drawn) [P32, 1-[5-ethylsulfonyl-6-[5-[N-ethyl-S-(trifluoromethyl)sulfonimidoyl]-1-methyl-benzimidazol-2-yl]-3-pyridyl]cyclopropanecarbonitrile]
≥ 80%: percent effect (mortality or growth inhibition) at 200 ppm [1] | effect (mortality or growth inhibition) at 200 ppm [3] | percent control (mortality, anti-feeding effect or growth inhibition) at 200 ppm [4] | percent effect (mortality or growth inhibition) at 200 ppm [6] | mortality at 24 ppm [8]

CCS(=O)(=O)c1cc(C2(C#N)CC2)cnc1-c1nc2cc(S(=N)(=O)C(F)(F)F)ccc2n1C (stereo not shown) [P33, 1-[5-ethylsulfonyl-6-[1-methyl-5-(trifluoromethylsulfonimidoyl)benzimidazol-2-yl]-3-pyridyl]cyclopropanecarbonitrile]
≥ 80%: percent effect (mortality or growth inhibition) at 200 ppm [1] | mortality at 200 ppm [2] | effect (mortality or growth inhibition) at 200 ppm [3] | percent control (mortality, anti-feeding effect or growth inhibition) at 200 ppm [4] | percent effect (mortality or growth inhibition) at 200 ppm [6]

CCS(=O)(=O)c1cc(C2(C#N)CC2)cnc1-c1nc2cc(S(=O)(=NCC(F)(F)F)C(F)(F)F)ccc2n1C (stereo not drawn) [P34, 1-[5-ethylsulfonyl-6-[1-methyl-5-[N-(2,2,2-trifluoroethyl)-S-(trifluoromethyl)sulfonimidoyl]benzimidazol-2-yl]-3-pyridyl]cyclopropanecarbonitrile]
≥ 80%: percent effect (mortality or growth inhibition) at 200 ppm [1] | mortality at 200 ppm [2] | effect (mortality or growth inhibition) at 200 ppm [3] | percent control (mortality, anti-feeding effect or growth inhibition) at 200 ppm [4] | percent effect (mortality or growth inhibition) at 200 ppm [6]

CCS(=O)(=O)c1cc(-c2nccc(C(F)(F)F)n2)cnc1-c1nc2cc(S(=N)(=O)C(F)(F)F)ccc2o1 (stereo not shown) [P40, [2-[3-ethylsulfonyl-5-[4-(trifluoromethyl)pyrimidin-2-yl]-2-pyridyl]-1,3-benzoxazol-5-yl]-imino-oxo-(trifluoromethyl)-λ^6-sulfane]
≥ 80%: percent effect (mortality or growth inhibition) at 200 ppm [1] | effect (mortality or growth inhibition) at 200 ppm [3] | percent control (mortality, anti-feeding effect or growth inhibition) at 200 ppm [4] | mortality at 200 ppm [5] | percent effect (mortality or growth inhibition) at 200 ppm [6]
